Measurements: ChEMBL document CHEMBL3352161, “Phorbaketals L-N, cytotoxic sesterterpenoids isolated from the marine sponge of the genus Phorbas” (Bioorg Med Chem Lett, 2014)
pIC50: −log10 of the molar value.

How the values were obtained:
Format in all cases: functional, cell-based
[1] = Cytotoxicity against human PANC1 cells after 72 hrs by MTT assay; conditions: PANC-1, 72 h
[2] = test system: A498; experiment: Cytotoxicity against human A498 cells after 72 hrs by MTT assay; conditions: A498, 72 h
[3] = test system: ACHN; experiment: Cytotoxicity against human ACHN cells after 72 hrs by MTT assay

Row | Structure (SMILES) | pIC50 [1] | pIC50 [2] | pIC50 [3]
1 | C=C(CCC=C(C)C)[C@H](O)[C@@H]1CC(C)=C[C@]2(C=C(CO)[C@H]3CC(=O)C(C)=C[C@H]3O2)O1 | 4.30 | 4.76 | < 4.30
2 | C=C(C)[C@@H](CC/C(C)=C/[C@@H]1CC(C)=C[C@]2(C=C(CO)[C@H]3CC(=O)C(C)=C[C@H]3O2)O1)OO | < 4.30 | < 4.30 | < 4.30
3 | C=C(CCC1OC1(C)C)[C@H](Br)[C@@H]1CC(C)=C[C@]2(C=C(CO)[C@H]3CC(=O)C(C)=C[C@H]3O2)O1 (stereo not given in full) | 4.94 | 4.73 | 4.61
4 | CC(C)=CCC/C(C)=C/[C@@H]1CC(C)=C[C@]2(C=C(CO)[C@H]3CC(=O)C(C)=C[C@H]3O2)O1 | 4.87 | 5.36 | 5.52
5 | O=c1[nH]cc(F)c(=O)[nH]1 [FLUOROURACIL] | 4.30 |  | 
6 | CCN(CC)CCNC(=O)c1c(C)[nH]c(/C=C2\C(=O)Nc3ccc(F)cc32)c1C [SUNITINIB MALATE] |  |  | 5.70
7 | CO[C@H]1C[C@@H]2CC[C@@H](C)[C@@](O)(O2)C(=O)C(=O)N2CCCC[C@H]2C(=O)O[C@H]([C@H](C)C[C@@H]2CC[C@@H](OC(=O)C(C)(CO)CO)[C@H](OC)C2)CC(=O)[C@H](C)/C=C(\C)[C@@H](O)[C@@H](OC)C(=O)[C@H](C)C[C@H](C)/C=C/C=C/C=C/1C [TEMSIROLIMUS] |  | 6.46 | 
